Target: Leukotriene B4 receptor (Cavia porcellus)
Assay: Compound was evaluated for Leukotriene B4 receptor binding, obtained from radioligand binding assay using guinea pig spleen cell membrane

- IC50: > 300 nM
SMILES: CCOC(=O)/C=C/c1cn(CC(=O)N(C)CCc2ccccc2)c2ccc(OCc3ccccc3)cc12 [(E)-3-{5-Benzyloxy-1-[(methyl-phenethyl-carbamoyl)-methyl]-1H-indol-3-yl}-acrylic acid ethyl ester]

— BindingDB's records for doi:10.1021/jm950699x (Rhône-Poulenc Rorer, 1996)
